Experimental data published in patent US20060211071A1, “Device for aggregating, imaging and analyzing thrombi and a method of use” (Millennium Pharmaceuticals, Inc., priority 2004, published 2006).
Where a SMILES comes first, the peptide text is derived from it. Bridges are numbered along the chain shown (N, C = ends). [ ]: non-standard residue; d: D form. hArg = N=C(N)NCCCC[C@H](N)C(=O)O; Mpa = O=C(O)CCS

How the values were obtained:
[1] = tested on: thrombus size; experiment: Sequential study of thrombotic profile of 20 healthy volunteers on clopidogrel, aspirin and their combination; type: in vivo, human; settings: clopidogrel 75 mg/day, aspirin 325 mg/day
[2] = tested on: preformed thrombi; experiment: Stability / reversal of preformed thrombi, blood perfused over collagen surface under arterial shear rates; type: cell-based, human
Experimental: Images are recorded at a frequency of 1 Hz.
Such assays can be used to detect antithrombotic activity of drugs that will target known effectors of thrombus stability reported in animal models of thrombosis (CD40L, Gas6, SLAM, SAP, Ephrin).

[3] = tested on: thrombus destabilization; settings: two 300 mg loading doses of plavix and daily aspirin
[4] = tested on: platelets; experiment: Whole blood treated with GPIIb/IIIa antagonist perfused over collagen surface: monolayer of adhering platelets; type: cell-based; settings: therapeutic dose 2-3 uM
From the text: P-selectin is responsible for the recruitment of leukocytes on activated/inflamed vessel wall and at sites of platelet deposition. It is known that leukocyte recruitment under these conditions will contribute to atherosclerotic plaque progression. Therefore monitoring the number of leukocyte rolling on adhering platelets could help define people at risk to develop future atherothrombotic events (number of leukocyte recruited as a predictor of future clinical events). Whole blood treated with a GPIIb/IIIa antagonist (e.g. Integrilin at the therapeutic dose 2-3 uM) and perfused over a collagen surface generate a monolayer of adhering platelets. […] Two to three minutes after the start of the perfusion at arterial shear rates of about ˜600/sec, leukocytes stained with rhodamine 6G are being recruited and roll over the adhering platelets. Antithrombotic agents (or agents targeting the P-selectin/PSGL-1 pathway) that will reduce the amount of leukocyte rolling on adhering platelets will therefore potentially reduce the risks of atherothrombotic events.

[5] = tested on: thrombotic process triggered by type III collagen; settings: 1000/sec
Experimental: The methodology and device described herein allows the monitoring in real time of the deposition of fluorescently labeled platelets into a transparent perfusion chamber (FIG. 11). The thrombosis profiler consists of a custom built epifluorescence microscope to monitor thrombus formation and a syringe pump to establish the desired flow and wall shear rate in the capillary perfusion chamber. A thermostatic sample compartment maintains the blood sample at a temperature of 37° C. Platelets are labeled by adding an aliquot of Rhodamine 6G (final concentration 1.25 μg/ml) to whole blood. […] Excitation and emission light are filtered with a set of fluorescence filters (31002, Chroma Technologies, Rockingham, Vt.). […] Images are recorded at a frequency of 1 Hz. […]
A software/algorithm has been developed in order to obtain a more representative read out of the thrombus formation over time. […] Since the use of antithrombotic drugs can increase platelet adhesion, thrombus size was represented as the measurement of the fluorescence intensity divided by total area (FIG. 12). […] Once the threshold is determined, pixels with values lower than the threshold are classified as background and pixels with values greater than the threshold are marked as foreground. […]

[6] = tested on: thrombi on type III collagen-coated capillaries; experiment: End-point perfusion chamber assay: effect of anticoagulants on antithrombotic activity of a P2Y12 antagonist; type: cell-based, human; settings: 4 minutes at 1000/sec
Experimental: Several anticoagulants have been studied for their effects on the antithrombotic activity of a proprietary direct P2Y12 antagonist in the perfusion chamber assay. Whole blood was perfused over type III collagen-coated capillaries for 4 minutes at 1000/sec. At the end of the experiment, thrombotic deposits were rinsed, fixed and stained with toluidine blue for measurement of thrombus size. […] FIG. 10B represents the mean grey level (MGL) of the thrombi present in the area of observation located at 8 mm from the proximal part of the capillary. Corresponding thrombus volume was determined using the graph presented on FIG. 10C. Nonanticoagulated or Factor Xa anticoagulated human blood was perfused through type III collagen-coated capillary chambers (Vitrocom, glass rectangular capillaries 0.2 by 2 mm section) at […] for 4 minutes. After staining of the thrombotic deposits with toluidine blue for 45 seconds, an En Face picture located 8 mm downstream of the proximal part of the capillary was taken. Measurement of the gray level of each thrombus or platelets located in a window 400 μm long×250 μm wide was performed, and results are expressed as mean ±SEM using the Simple PCI software (Compix Inc Imaging System). Measurement of the mean thrombus volume (μm^3/μm^2) was performed at the same location on cross sections of the thrombotic deposits after epon embedding as described by Andre et al. (2003) Circulation 108, 2697-2703. Mean thrombus volume was expressed by use of Simple PCI software and plotted against the corresponding mean grey level. By using data from human in vitro (by titrating with the GPIIb/IIIa antagonist eptifibatide) experiments, a thrombotic profile (FIG. 10C) that was then used for a rapid measurement of the thrombus volume in subsequent experiments Was established

[7] = tested on: thrombotic process on collagen+tissue factor coated matrix; experiment: Non-anticoagulated blood perfused over fibrillar collagen plus tissue factor matrix; type: cell-based; settings: therapeutic dose; arterial shear rates
From the text: In this method, the thrombotic process can be evaluated with non-anticoagulated samples of blood. Non-anticoagulated samples of blood perfused over a thrombogenic matrix made of fibrillar collagen plus tissue factor generate thrombotic process under both venous and arterial shear rates that is sensitive to the action of different anticoagulants. In FIG. 22, the thrombotic profile, is inhibited by the therapeutic dose of enoxaparin and a factor Xa inhibitor indicating this system can be used to detect the activity of anticoagulants under arterial shear rates. Similarly, this method can be used to detect both platelet and fibrin deposition under venous shear rate conditions using for example fluorescently labeled antibodies directed against fibrin.

Q: For COC(=O)[C@H](c1ccccc1Cl)N1CCc2sccc2C1 [clopidogrel], which “healthy individuals that did not respond to monotherapy” value [1] is on record?
A: 4 out of 20

Q: And the “mechanism of effect on thrombosis (thrombus stability)” value [2]?
A: affect thrombosis via a mechanism targeting the thrombus stability

Q: What about the “antithrombotic protection in type II diabetic patient” value [3] of the same compound?
A: lack of protection

Q: Which platelet activation [4] does the source give for N=C(N)NCCCC[C@@H]1NC(=O)CCSSC[C@@H](C(N)=O)NC(=O)[C@@H]2CCCN2C(=O)[C@H](Cc2c[nH]c3ccccc23)NC(=O)[C@H](CC(=O)O)NC(=O)CNC1=O [Integrilin] ([Mpa][hArg]GDWPC-NH2; disulfide 1-7) here?
A: platelet activation is not affected

Q: And the thrombus formation [4]?
A: thrombus formation is abrogated

Q: And the “concentration reaching maximum level of inhibition (therapeutic dose)” value ([5]; Factor Xa-anticoagulated blood)?
A: 2 µM

Q: And the “inhibition of the thrombotic process” value ([5]; increasing concentrations spiked into Factor Xa-anticoagulated blood)?
A: dose-dependently inhibited the thrombotic process

Q: With O=C(O)CC(O)(CC(=O)O)C(=O)O [Citrate] as the compound, how does the “effect of the anticoagulant on the antithrombotic activity of a P2Y12 antagonist” value (shortened to “effect of the anticoagulant”) [6] read?
A: artificially increased the antithrombotic effects of P2Y12 antagonist

Q: What does the source list for CSc1nc(N)c2ncn([C@@H]3O[C@H](COP(=O)(O)O)[C@@H](O)[C@H]3O)c2n1 [2MeSAMP]?
A: mechanism of effect on thrombosis (thrombus stability) [2]: affect thrombosis via a mechanism targeting the thrombus stability; destabilization / reversal of preformed thrombi ([2]; 100 uM): induces the destabilization of preformed thrombi; extent of the reversal phenomenon in presence of aspirin ([2]; 2MeSAMP at 100 uM, aspirin present): increased in presence of aspirin

Q: CCCCCNC(=O)c1coc([C@H]2[C@@H](Cc3ccccc3CCC(=O)O)[C@@H]3CC[C@H]2O3)n1 [Ifetroban] was tested. Which “mechanism of effect on thrombosis (thrombus stability)” value [2] did it give?
A: affect thrombosis via a mechanism targeting the thrombus stability

Q: What about the “stability of preformed thrombi” value ([2]; 300 nM and 1 uM) of the same compound?
A: significantly altered their stability

Q: CNc1ncnc2c1ncn2[C@H]1C[C@H](OP(=O)(O)O)[C@@H](COP(=O)(O)O)O1 [MRS2179] was tested. Which “destabilization / reversal of preformed thrombi” value ([2]; 100 uM) did it give?
A: did not induced thrombus reversal

Q: And the “slope of thrombus growth” value ([2]; 100 uM, added to preformed thrombi)?
A: reduced the slope of thrombus growth

Q: hirudin was tested. Which “effect of the anticoagulant” value [6] did it give?
A: least impact on the antithrombotic activity of P2Y12 antagonist

Q: NC(N)=NCCC[C@H](NC(=O)[C@@H]1CCCN1C(=O)[C@H](N)Cc1ccccc1)C(=O)CCl [PPACK] was tested. Which “effect of the anticoagulant” value [6] did it give?
A: artificially increased the antithrombotic effects of P2Y12 antagonist

Q: Which thrombotic profile [7] does the source give for enoxaparin here?
A: inhibited

Q: What does the source list for CC(=O)Oc1ccccc1C(=O)O [aspirin]?
A: healthy individuals that did not respond to monotherapy [1]: 5 out of 20; mechanism of effect on thrombosis (thrombus stability) [2]: affect thrombosis via a mechanism targeting the thrombus stability
